This is an account of results in US20260125378A2, “Heterocyclic Compounds” (BeOne Medicines I GmbH, priority 2023, published 2026).

Usually IC50 stands for the concentration that gives 50% inhibition. A high value points to weaker potency.

The target of assay [1] is T1, Full length DGKζ (in-house protein M1-V929) (Homo sapiens, UniProt Q13574).
T1 construct: His (N); TEV site (N); made in house; host or cells: Sf9 insect cells (Bac-to-Bac baculovirus)
Description: Biochemical DGK IC50 assay (ADP-Glo, lipid micelle substrate), DGKζ. Particulars: 1 hour preincubation, 1 hour reaction, room temperature. Summed up: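 Enzyme: full-length human DGKζ M1-V929, produced in baculovirus-infected Sf9 cells; substrate DAG/PS micelles. Buffer 50 mM HEPES, 10 mM MgCl2, 0.01 mM CaCl2, 0.1 mM Na3VO4.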
A general note: In ADP-Glo the light output rises with the ADP produced.

For assay [2], the target named is T2, Full length DGKα (D21-10BG, SignalChem) (Homo sapiens, UniProt P23743).
T2 construct: Full length DGKα (D21-10BG, SignalChem); purchased SignalChem D21-10BG
Description: Biochemical DGK IC50 assay (ADP-Glo, lipid micelle substrate), DGKα. Particulars: 1 hour preincubation, 1 hour reaction, room temperature. The method in brief: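 ADP-Glo luminescence quantified ADP produced after a 1 h room-temperature reaction of full-length DGKα on DAG/PS micelles, in HEPES buffer containing MgCl2, CaCl2, vanadate, BSA and Tween-20. IC50 values derive from activity inhibition over a compound concentration series.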

T1 sequence (Q13574 1-929 isoform Q13574-4): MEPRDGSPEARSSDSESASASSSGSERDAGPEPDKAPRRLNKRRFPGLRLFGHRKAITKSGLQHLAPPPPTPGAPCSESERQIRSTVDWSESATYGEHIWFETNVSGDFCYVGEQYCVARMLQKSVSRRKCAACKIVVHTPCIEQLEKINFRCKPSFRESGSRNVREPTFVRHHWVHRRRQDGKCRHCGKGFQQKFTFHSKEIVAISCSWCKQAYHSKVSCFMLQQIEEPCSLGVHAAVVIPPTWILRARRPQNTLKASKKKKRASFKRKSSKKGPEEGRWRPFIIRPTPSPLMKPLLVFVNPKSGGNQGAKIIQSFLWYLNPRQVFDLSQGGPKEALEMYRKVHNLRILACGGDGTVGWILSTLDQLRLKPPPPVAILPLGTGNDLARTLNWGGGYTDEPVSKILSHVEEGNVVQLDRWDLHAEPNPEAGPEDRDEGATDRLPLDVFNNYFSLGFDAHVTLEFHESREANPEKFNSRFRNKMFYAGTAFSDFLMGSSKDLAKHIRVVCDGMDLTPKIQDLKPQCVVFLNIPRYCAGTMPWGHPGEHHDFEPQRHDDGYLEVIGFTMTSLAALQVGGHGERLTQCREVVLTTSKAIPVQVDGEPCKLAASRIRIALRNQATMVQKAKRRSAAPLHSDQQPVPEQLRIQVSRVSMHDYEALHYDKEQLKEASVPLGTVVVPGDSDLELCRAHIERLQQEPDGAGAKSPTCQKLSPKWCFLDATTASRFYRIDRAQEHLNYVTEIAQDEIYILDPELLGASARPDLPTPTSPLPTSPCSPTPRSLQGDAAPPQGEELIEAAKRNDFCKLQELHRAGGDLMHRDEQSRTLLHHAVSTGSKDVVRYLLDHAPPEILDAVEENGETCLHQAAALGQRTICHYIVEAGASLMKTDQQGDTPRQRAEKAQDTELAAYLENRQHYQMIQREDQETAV
T2 sequence (P23743 whole entry): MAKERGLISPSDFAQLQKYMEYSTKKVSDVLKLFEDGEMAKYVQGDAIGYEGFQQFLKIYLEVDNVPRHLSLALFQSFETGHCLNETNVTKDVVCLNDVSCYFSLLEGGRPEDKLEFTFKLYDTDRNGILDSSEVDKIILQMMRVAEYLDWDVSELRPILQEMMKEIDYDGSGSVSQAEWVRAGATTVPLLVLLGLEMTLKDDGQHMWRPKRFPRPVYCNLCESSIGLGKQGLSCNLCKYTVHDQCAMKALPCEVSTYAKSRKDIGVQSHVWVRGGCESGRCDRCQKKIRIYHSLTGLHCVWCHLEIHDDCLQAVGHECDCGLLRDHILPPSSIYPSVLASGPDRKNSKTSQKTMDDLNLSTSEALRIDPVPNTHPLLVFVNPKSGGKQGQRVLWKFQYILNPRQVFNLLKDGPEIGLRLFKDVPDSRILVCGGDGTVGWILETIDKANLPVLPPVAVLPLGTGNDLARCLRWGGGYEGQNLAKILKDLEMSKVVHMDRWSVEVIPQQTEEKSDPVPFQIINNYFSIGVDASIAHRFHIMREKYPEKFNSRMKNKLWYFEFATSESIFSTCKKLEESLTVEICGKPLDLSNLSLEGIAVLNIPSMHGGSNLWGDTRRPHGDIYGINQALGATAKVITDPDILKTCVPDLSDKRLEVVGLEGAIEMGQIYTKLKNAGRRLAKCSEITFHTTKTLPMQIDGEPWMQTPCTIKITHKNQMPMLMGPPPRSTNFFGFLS

For the molecule `CCn1c(CC#N)nc2c(N3C[C@@H](C)N(C(C)c4ccc5c(c4)CN(CC(F)(F)F)C5=O)C[C@@H]3C)nc(=O)n(C)c21` (stereo partly drawn) [Compound A82, 2-(6-((2S,5R)-2,5-dimethyl-4-(1-(1-oxo-2-(2,2,2-trifluoroethyl)isoindolin-5-yl)ethyl)piperazin-1-yl)-9-ethyl-3-methyl-2-oxo-3,9-dihydro-2H-purin-8-yl)acetonitrile], the IC50 in assay [1] amounted to 201 nM; in assay [2] it was 9520 nM.
With `CC[C@@H]1CN(c2nc(=O)n(C)c3c2nc(CC#N)n3C)[C@@H](C)CN1C(C)c1ccc2c(c1)OC(C)(C)CO2` (single isomer, unassigned) [Compound A63a], the figures for the IC50 in assay [1] and in assay [2] were 2 nM and 10300 nM, respectively.
Consider `CCn1c(CC#N)nc2c(N3C[C@@H](C)N(C(C)c4ccc5c(=O)cc(C)oc5c4)C[C@@H]3C)nc(=O)n(C)c21` (stereo partly drawn) [Compound A191, 2-(6-((2S,5R)-2,5-dimethyl-4-(1-(2-methyl-4-oxo-4H-chromen-7-yl)ethyl)piperazin-1-yl)-9-ethyl-3-methyl-2-oxo-3,9-dihydro-2H-purin-8-yl)acetonitrile], for which the IC50 in assay [1] is 78 nM; in assay [2] it was 40900 nM.
For `CCn1c(CC#N)nc2c(N3C[C@@H](C)N(C(C)c4ccc5c(n4)OC(C)(C)CO5)C[C@@H]3C)nc(=O)n(C)c21` (stereo partly drawn) [Compound A74, 2-(6-((2S,5R)-4-(1-(3,3-dimethyl-2,3-dihydro-[1,4]dioxino[2,3-b]pyridin-6-yl)ethyl)-2,5-dimethylpiperazin-1-yl)-9-ethyl-3-methyl-2-oxo-3,9-dihydro-2H-purin-8-yl)acetonitrile], in that order: 45 nM and > 150000 nM.
For `CC(c1cc2c(cc1F)OCC(C)(C)O2)N1C[C@H](C)N(c2nc(=O)n(C)c3c2nc(CC#N)n3C)C[C@H]1C` (stereo partly drawn) [Compound A69, 2-(6-((2S,5R)-4-(1-(7-fluoro-3,3-dimethyl-2,3-dihydrobenzo[b][1,4]dioxin-6-yl)ethyl)-2,5-dimethylpiperazin-1-yl)-3,9-dimethyl-2-oxo-3,4,5,9-tetrahydro-2H-purin-8-yl)acetonitrile], in that order: 6 nM and 3070 nM.
As to `CCn1c(CC#N)nc2c(N3C[C@@H](C)N(C(C)c4cccc(OC(F)(F)F)c4)C[C@@H]3C)nc(=O)n(C)c21` (stereo partly drawn) [Compound A44, 2-(6-((2S,5R)-2,5-dimethyl-4-(1-(3-(trifluoromethoxy)phenyl)ethyl)piperazin-1-yl)-9-ethyl-3-methyl-2-oxo-3,9-dihydro-2H-purin-8-yl)acetonitrile], the half-inhibitory concentration (IC50) amounted to 34 nM in assay [1] and 51200 nM in assay [2].
Take `Cc1cnc2ccc(C(C)N3C[C@H](C)N(c4c(F)c(=O)n(C)c5c4nc(CC#N)n5C)C[C@H]3C)cc2n1` (single isomer, unassigned) [Compound A23a]: the concentration for half-maximal inhibition (IC50) in assay [1] is 8 nM; in assay [2], 63200 nM.
Regarding `CCn1c(CC#N)nc2c(N3C[C@@H](C)N(C(C)c4ccc(C)c(C)n4)C[C@@H]3C)nc(=O)n(C)c21` (stereo partly drawn) [Compound A138, 2-(6-((2S,5R)-4-(1-(5,6-dimethylpyridin-2-yl)ethyl)-2,5-dimethylpiperazin-1-yl)-9-ethyl-3-methyl-2-oxo-3,9-dihydro-2H-purin-8-yl)acetonitrile], the values for the IC50 in assay [1] and in assay [2] were 949 nM and > 150000 nM, respectively.
